Experimental data published in patent US10478437B2, “Combination therapy to enhance the anticancer efficacy of platinum drugs” (University of Pittsburgh-of the Commonwealth System of …, priority 2014, dated 2019).
Entries after “also recorded” stand apart in the source; their conditions may differ.

Experiments:
[1] = test system: cisplatin-resistant ovarian cancer cell line A2780cis; assay: Caspase-3/7 activity assay (apoptotic cell death), compound alone or with cisplatin; assay type: cell-based, human; settings: for caspase-3/7 activity (Lum) with compound and cisplatin (20 μM) / caspase-3/7 activity (Lum) with compound alone: Table 6; for caspase-3/7 activity (Lum) with compound alone: untreated cells 9 ± 1
Procedure, shortened: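 Caspase-3/7 activity in A2780cis cells treated with compound alone or with cisplatin, luminescent Caspase-Glo 3/7 read-out. Apoptotic morphology is checked microscopically just before measurement.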

[2] = test system: cisplatin-resistant ovarian cancer cell line A2780cis; assay: CellTiter-Blue cell viability assay, compound alone or with cisplatin or carboplatin, 24 h; assay type: cell-based, human; settings: for Combination Index: CompuSyn software
Procedure, shortened: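 A2780cis cells received compound at 10, 20 or 50 μM, alone or with cisplatin or carboplatin, for 24 h before CellTiter-Blue viability read-out. Data are mean±SD, combinations vs compound alone compared by Student's t test (P<0.05), and combination index computed by the Chou method.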

[3] = test system: PEO4, SKOV3, H1299, MDA-MB-231, Ca133 cells; assay: Western blot of PARP and Caspase-3 cleavage in other cisplatin-resistant cancer cells; assay type: cell-based, human; settings: 20 h, FIG. 9, in words
Method: FIG. 9. The combination of cisplatin and compound 1-6 triggers extensive apoptosis in various types of cisplatin- and multidrug-resistant tumor cells. Cisplatin-resistant cancer cells PEO4 (ovarian), SKOV3 (ovarian), H1299 (lung), MDA-MB-231 (breast), Ca133 (head & neck) were treated with DMSO (untreated), cisplatin (20 μM) alone, compound 1-6 (20 μM) alone, or the combination for 20 h. Cleavage of PARP and Caspase-3 were determined by western blot.
(§1) Whole cell lysate was prepared by lysing cells in cell lysis buffer (Cell signaling technology) containing complete protease inhibitor (Roche). Cell lysates were then cleared at 15,000 rpm for 15 min at 4° C. The protein content was quantified using a Bio-Rad Protein Assay kit (Bio-Rad Laboratories, Hercules, Calif.). The equal amount of protein was separated on Tris-glycine gels (Invitrogen). The separated proteins were blotted onto a polyvinylidene difluoride membrane and blocked overnight at 4° C. in phosphate-buffered saline containing 0.1% Tween 20 and 10% nonfat dry milk (blocking buffer). Membranes were incubated with primary antibodies in blocking buffer overnight at 4° C. Primary antibodies used were: β-actin from Sigma; Bax, Bak, Caspase-9 and cleaved Caspase-3 from Cell Signaling Technology; phospho-Histone H2AX (Ser 139) and Noxa from Millipore. Membranes were then washed and incubated in peroxidase conjugated anti-rabbit IgG (Sigma) or anti-mouse IgG (Sigma) secondary antibody for 1 h at room temperature. Membranes were developed using SuperSignal West Femto Maximum Sensitivity Substrate (Thermo Fisher Scientific).
To evaluate whether the synergistic effects of the disclosed compounds and cisplatin could be extended to other types of cancer cells, breast cancer cells (MDA-MB-231), non-small cell lung carcinoma cells (H-1299), ovarian cancer cells (PEO4 and SKOV3) and head and neck cancer cells (Ca133) were treated with various combinations of cisplatin and compound 1-6 and analyzed for Caspase-3.

[4] = test system: Bax/Bak wildtype (WT) and double knockout (DKO) MEF cells; assay: Western blot of Caspase-8, 9 and 3 cleavage in Bax/Bak WT and DKO cells; assay type: cell-based, mouse; settings: compound 20 μM + cisplatin 10 μM, 20 h, FIG. 8C; in words
Method: as §1
In order to understand the role of Bax and Bak in the efficacy of cisplatin and compound 1-6, Bax/Bak double knockout (DKO) SV40-transformed MEF cells were used. […] The cleavage of Caspase-8, 9, and 3 were determined by western blot.

[5] = compound 10 μM with cisplatin (20 μM)
[6] = compound 20 μM with cisplatin (20 μM)
[7] = compound 50 μM with cisplatin (20 μM)

Structure (SMILES): CCOCCCn1c(=S)[nH]c2c(C)cccc2c1=O [Compound 1-6]
- activation of Caspase-3/7 in combination with cisplatin compared to mdivi-1 ([1]; FIG. 7A and Table 6, in words): more effective; also recorded: more potent than mdivi-1
- caspase-3/7 activity (Lum), compound with cisplatin ([1]; Table 1, compound 20 μM with 20 μM cisplatin, 20 h): 145 ± 6 Lum
- caspase-3/7 activity (Lum), compound alone ([1]; Table 1, compound 20 μM, 20 h, mean ± S.D. of triplicates): 12 ± 0 Lum
- caspase-3/7 activity (Lum), compound alone ([1]; Table 2, compound 20 μM, 20 h): 12 ± 0 Lum
- caspase-3/7 activity (Lum) with compound and cisplatin (20 μM) ([1]; compound 5 μM + cisplatin 20 μM, 20 h): 22 ± 1 Lum
- caspase-3/7 activity (Lum) with compound alone ([1]; compound 5 μM, 20 h): 10 ± 1 Lum
- caspase-3/7 activity (Lum) with compound and cisplatin (20 μM) ([1]; compound 10 μM + cisplatin 20 μM, 20 h): 67 ± 3 Lum
- caspase-3/7 activity (Lum) with compound alone ([1]; compound 10 μM, 20 h): 10 ± 1 Lum
- caspase-3/7 activity (Lum) with compound and cisplatin (20 μM) ([1]; compound 20 μM + cisplatin 20 μM, 20 h): 105 ± 7 Lum
- caspase-3/7 activity (Lum) with compound alone ([1]; compound 20 μM, 20 h): 11 ± 2 Lum
- activity in the screen (Caspase-3/7 activity and microscopic examination), active / inactive ([1]; alone or in the presence of cisplatin, in words): active
- Caspase-3/7 activity upon combination with cisplatin compared to cisplatin alone or compound alone ([1]; in words): increase in Caspase-3/7 activity
- cell viability after combination with carboplatin compared to carboplatin alone ([2]; 24 h, FIG. 6, in words): cell viability was reduced
- viability at 10 µM ([2]; Homo sapiens, A2780cis, compound 10 μM, 24 h, untreated cells = 100%, read-out: survival (%) of cells with compound alone): 98.9 ± 3.1%
- viability at 20 µM ([2]; Homo sapiens, A2780cis, compound 20 μM, 24 h, untreated cells = 100%, read-out: survival (%) of cells with compound alone): 95.4 ± 4.2%
- viability at 50 µM ([2]; Homo sapiens, A2780cis, compound 50 μM, 24 h, untreated cells = 100%, read-out: survival (%) of cells with compound alone): 93.7 ± 4.4%
- Survival (%) of cells with compound and carboplatin (200 μM) ([2]; compound 10 μM + carboplatin 200 μM, 24 h): 64.5 ± 2.7%
- survival (%) of cells with compound and cisplatin (20 μM) ([2]; compound 10 μM + cisplatin 20 μM, 24 h): 58.8 ± 1.5%
- Grading (of combination index) [2, 5]: Synergism
- Combination Index [2, 5]: 0.67
- potency at enhancing the cytotoxicity of cisplatin compared to mdivi-1 ([2]; compound 10 μM with cisplatin, FIG. 4, in words): more potent than mdivi-1
- Survival (%) of cells with compound and carboplatin (200 μM) ([2]; compound 20 μM + carboplatin 200 μM, 24 h): 48.0 ± 3.0%
- survival (%) of cells with compound and cisplatin (20 μM) ([2]; compound 20 μM + cisplatin 20 μM, 24 h): 28.0 ± 1.6%
- Grading (of combination index) [2, 6]: Strong
- Combination Index [2, 6]: 0.24
- Survival (%) of cells with compound and carboplatin (200 μM) ([2]; compound 50 μM + carboplatin 200 μM, 24 h): 2.5 ± 0.4%
- survival (%) of cells with compound and cisplatin (20 μM) ([2]; compound 50 μM + cisplatin 20 μM, 24 h): 1.5 ± 0.6%
- Grading (of combination index) [2, 7]: Very strong
- Combination Index [2, 7]: 0.01
- cell death after single compound exposure ([3]; 20 μM alone): minimal effect in inducing cell death
- cleavage of Caspase 3 and PARP, combination with cisplatin ([3]; compound 20 μM + cisplatin 20 μM): cleavage of Caspase 3 and PARP was observed
- cleavage of caspases in Bax/Bak WT and DKO MEF cells, combination with cisplatin [4]: cleavage of Caspase 3 and 9 independent of Bax or Bak activity
